Test results: patent publication US20060039867A1, “Method for treating sleep-related breathing disorders with setiptiline” (Cypress Bioscience, Inc., priority 2004, published 2006)
pKi: −log10 of the molar value. Read-outs that look alike come from different tables or passages of the source. Blank lines part the entries; values can stand above or below the molecule they belong to.

Key:
[1] = target: T1, Muscarinic M1 (Homo sapiens, UniProt P11229); assay: Receptor binding, Muscarinic M1; conditions: read-out: Setiptiline (Ki)
T1 sequence (P11229 1-460): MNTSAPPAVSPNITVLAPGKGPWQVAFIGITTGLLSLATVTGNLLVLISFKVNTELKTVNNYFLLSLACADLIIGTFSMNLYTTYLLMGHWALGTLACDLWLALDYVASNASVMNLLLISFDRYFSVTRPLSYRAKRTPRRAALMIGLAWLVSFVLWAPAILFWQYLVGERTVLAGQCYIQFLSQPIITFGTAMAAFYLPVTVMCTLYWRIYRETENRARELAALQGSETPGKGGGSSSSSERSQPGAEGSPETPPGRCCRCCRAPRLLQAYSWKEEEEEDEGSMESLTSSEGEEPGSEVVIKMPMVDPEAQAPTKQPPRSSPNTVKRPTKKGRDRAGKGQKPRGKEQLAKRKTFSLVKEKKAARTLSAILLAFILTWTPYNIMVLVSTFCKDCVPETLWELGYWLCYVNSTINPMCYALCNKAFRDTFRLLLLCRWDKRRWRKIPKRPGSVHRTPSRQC
Description: (§1) 5HT3 antagonists are used to treat various maladies of the gastrointestinal tract, such as irritable bowel syndrome-diarrhea predominant and nausea and vomiting associated with chemotherapy. One potentially serious side effect of strong 5HT3 antagonists is constipation, which in some cases may be so severe as to lead to ischemic colitis.

[2] = target: α1, non-selective; assay: Receptor binding, α1 non-selective; conditions: read-out: Setiptiline (Ki)
Description: as §1

[3] = target: α2, non-selective; assay: Receptor binding, α2 non-selective; conditions: read-out: Setiptiline (Ki)
Description: as §1

[4] = target: T2, 5HT3 (Homo sapiens, UniProt P46098); assay: Receptor binding, 5HT3; conditions: 5HT3 receptor; read-out: Setiptiline (Ki)
T2 sequence (P46098 24-478): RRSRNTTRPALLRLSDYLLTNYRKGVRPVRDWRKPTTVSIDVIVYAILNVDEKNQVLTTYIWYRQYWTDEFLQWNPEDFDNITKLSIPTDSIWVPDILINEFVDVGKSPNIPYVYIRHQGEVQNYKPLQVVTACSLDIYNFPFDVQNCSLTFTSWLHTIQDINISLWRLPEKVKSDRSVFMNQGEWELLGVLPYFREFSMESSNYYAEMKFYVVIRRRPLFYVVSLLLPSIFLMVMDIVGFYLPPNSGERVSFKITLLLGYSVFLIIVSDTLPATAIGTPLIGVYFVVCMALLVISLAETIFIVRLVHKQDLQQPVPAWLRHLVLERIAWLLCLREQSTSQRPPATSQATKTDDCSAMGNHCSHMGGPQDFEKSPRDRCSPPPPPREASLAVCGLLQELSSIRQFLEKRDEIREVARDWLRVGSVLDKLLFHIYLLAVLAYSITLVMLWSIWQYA
Description: as §1

[5] = target: T3, 5HT2C (Homo sapiens, UniProt P28335); assay: Receptor binding, 5HT2C; conditions: 5HT2C receptor; read-out: Setiptiline (Ki)
T3 sequence (P28335 33-458, species assumed): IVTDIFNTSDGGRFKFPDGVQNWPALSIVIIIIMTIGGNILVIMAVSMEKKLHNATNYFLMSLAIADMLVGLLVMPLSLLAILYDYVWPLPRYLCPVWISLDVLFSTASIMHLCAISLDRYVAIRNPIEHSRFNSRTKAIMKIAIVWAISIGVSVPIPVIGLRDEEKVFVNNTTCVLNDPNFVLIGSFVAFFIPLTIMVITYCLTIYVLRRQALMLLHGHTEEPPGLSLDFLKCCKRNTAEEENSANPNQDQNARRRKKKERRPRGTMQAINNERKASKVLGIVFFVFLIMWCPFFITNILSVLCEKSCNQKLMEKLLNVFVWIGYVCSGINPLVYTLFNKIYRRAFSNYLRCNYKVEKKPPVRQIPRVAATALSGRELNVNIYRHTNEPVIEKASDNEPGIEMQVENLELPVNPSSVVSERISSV
Description: as §1

[6] = target: SERT (Homo sapiens, UniProt P31645); assay: Receptor binding, SERT; conditions: read-out: Setiptiline (Ki)
Sequence of SERT (P31645 whole entry, species assumed): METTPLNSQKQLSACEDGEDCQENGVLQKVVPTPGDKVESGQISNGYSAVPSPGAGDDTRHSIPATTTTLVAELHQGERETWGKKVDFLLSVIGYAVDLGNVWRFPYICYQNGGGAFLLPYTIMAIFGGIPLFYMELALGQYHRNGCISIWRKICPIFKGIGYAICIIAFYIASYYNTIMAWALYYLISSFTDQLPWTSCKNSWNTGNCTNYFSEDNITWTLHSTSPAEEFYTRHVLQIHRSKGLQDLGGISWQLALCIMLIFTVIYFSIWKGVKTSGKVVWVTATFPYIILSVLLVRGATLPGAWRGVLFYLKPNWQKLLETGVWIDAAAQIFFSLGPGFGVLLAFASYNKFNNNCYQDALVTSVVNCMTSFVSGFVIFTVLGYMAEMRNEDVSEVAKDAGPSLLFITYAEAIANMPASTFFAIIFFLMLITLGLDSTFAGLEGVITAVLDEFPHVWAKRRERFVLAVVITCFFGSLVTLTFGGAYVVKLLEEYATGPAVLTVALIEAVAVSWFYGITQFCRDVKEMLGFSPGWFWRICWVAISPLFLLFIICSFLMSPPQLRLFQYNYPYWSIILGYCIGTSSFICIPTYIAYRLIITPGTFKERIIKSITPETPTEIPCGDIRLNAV
Description: as §1

[7] = target: NET (Homo sapiens, UniProt P23975); assay: Receptor binding, NET; conditions: read-out: Setiptiline (Ki)
Sequence of NET (P23975 whole entry): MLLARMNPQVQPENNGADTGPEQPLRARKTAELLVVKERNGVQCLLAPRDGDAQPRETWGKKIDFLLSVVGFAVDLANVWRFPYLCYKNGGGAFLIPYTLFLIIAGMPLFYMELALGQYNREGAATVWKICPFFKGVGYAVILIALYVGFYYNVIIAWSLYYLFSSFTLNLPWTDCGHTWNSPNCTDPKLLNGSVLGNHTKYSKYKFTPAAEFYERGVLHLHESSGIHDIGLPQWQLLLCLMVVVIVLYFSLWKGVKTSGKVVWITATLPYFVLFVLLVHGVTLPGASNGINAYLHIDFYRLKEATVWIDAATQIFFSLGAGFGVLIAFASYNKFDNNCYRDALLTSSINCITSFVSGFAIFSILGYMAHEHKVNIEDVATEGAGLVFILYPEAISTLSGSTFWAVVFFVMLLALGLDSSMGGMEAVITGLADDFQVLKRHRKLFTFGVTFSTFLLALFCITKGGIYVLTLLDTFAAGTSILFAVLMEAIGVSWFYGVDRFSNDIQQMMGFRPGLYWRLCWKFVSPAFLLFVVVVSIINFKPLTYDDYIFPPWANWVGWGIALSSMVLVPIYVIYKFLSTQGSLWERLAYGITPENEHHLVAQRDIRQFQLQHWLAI
Description: as §1

[8] = target: 5HT2, non-selective; assay: Receptor binding, 5HT2 non-selective; conditions: 5HT2, non-selective receptor; read-out: Setiptiline (Ki)
Description: as §1

[9] = target: T4, 5HT1A sertotonin receptor (Homo sapiens, UniProt P08908); assay: Affinity for the 5HT1A serotonin receptor; type: binding; conditions: read-out: affinity for the 5HT1A sertotonin receptor (pKi) (converted)
T4 sequence (P08908 1-422): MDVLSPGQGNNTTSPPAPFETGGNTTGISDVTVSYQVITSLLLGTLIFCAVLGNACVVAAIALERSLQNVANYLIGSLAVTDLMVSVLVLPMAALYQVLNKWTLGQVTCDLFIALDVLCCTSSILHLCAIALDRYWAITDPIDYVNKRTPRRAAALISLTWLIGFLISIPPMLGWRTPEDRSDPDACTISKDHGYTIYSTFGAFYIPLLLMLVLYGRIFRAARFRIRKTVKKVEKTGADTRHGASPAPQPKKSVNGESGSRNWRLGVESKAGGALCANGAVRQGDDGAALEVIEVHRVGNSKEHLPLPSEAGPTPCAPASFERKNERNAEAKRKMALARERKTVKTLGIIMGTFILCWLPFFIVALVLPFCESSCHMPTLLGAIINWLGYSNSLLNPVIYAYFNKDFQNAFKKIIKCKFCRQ

[10] = target: α2, non-selective; conditions: read-out: Mirtazapine (Ki); α2, non-selective receptor; from de Boer et al., 1996; cited from earlier work
[11] = target: T3, 5HT2C; conditions: read-out: Mirtazapine (Ki); 5HT2C receptor; from de Boer et al., 1996; cited from earlier work
[12] = target: 5HT2, non-selective; conditions: read-out: Mirtazapine (Ki); 5HT2, non-selective receptor; from de Boer et al., 1996; cited from earlier work
[13] = target: α1, non-selective; conditions: read-out: Mirtazapine (Ki); α1, non-selective receptor; from de Boer et al., 1996; cited from earlier work
[14] = target: T2, 5HT3; conditions: read-out: Mirtazapine (Ki); 5HT3 receptor; from de Boer et al., 1996; cited from earlier work

pKi [1]: 6.59
pKi [2]: 6.84
pKi [3]: 7.03
pKi [4]: 6.12
pKi [5]: 9.33
pKi [6]: < 5.00
pKi [7]: 5.71
pKi [8]: 9.15
Compound: CN1CCC2=C(C1)c1ccccc1Cc1ccccc12

Ki [9]: 85.1 nM
Compound: CC1CN(c2cccc(Cl)c2)CCN1CCCn1nc2ccccn2c1=O (centres unmarked) [MER 810]

Compound: CN1CCN2c3ncccc3Cc3ccccc3C2C1 (centres unmarked) [Mirtazapine]
pKi [10]: 7.30
pKi [11]: 7.89
pKi [12]: 8.20
pKi [13]: 6.30
pKi [14]: 7.10
